Data on three compounds can be found in patent US10441560B2, “Compositions and methods for treating non-alcoholic steatohepatitis” (priority 2013, dated 2019).

Series [1] concerns CYP450. Conditions: at free concentrations observed in humans; previous studies; cited from earlier work.
A short description of series [2]: Absorption, distribution and metabolites after oral 14C-EPA-E in rats. Type of series: in vivo. How it is done:
(§1) After administration of ^14C-EPA-E into the ligated intestine of rats, the residual radioactivity in the intestine at 24 hours was only 4.6% of the administered dose. Radioactivity transferred to the plasma and lymph was mainly detected in the triglyceride (TG) fraction in the early phase after dosing, while distribution to the free fatty acid (FFA) fraction was slight at all timepoints. […] Orally administered EPA-E was primarily incorporated in adrenal gland lipids as cholesterol esters of the fatty acids eicosapentaenoic acid (EPA), docosapentaenoic acid (DPA) and docosahexaenoic acid (DHA).
After oral administration of ^14C-EPA-E to the rat, EPA, DPA and DHA were detected as metabolites in the total lipid fraction of the plasma and tissues (liver, fat, heart and brain). […] In the total lipid fraction of the liver, the radioactivity originated mainly from EPA, DPA and DHA. Thus, it is considered that EPA, DPA and DHA are the predominant metabolites of ^14C-EPA-E in tissues, as constituent fatty acids of the total lipid fraction.

The subject of series [3] is methionine-choline deficient diet rat model of nonalcoholic steatohepatitis. Kind of series: Methionine-choline deficient diet rat model of nonalcoholic steatohepatitis. Type of series: in vivo. Conditions: repeat oral administration at 1000 mg/kg.
For series [4], the system named is NASH. Description: Phase II double blind, placebo-controlled clinical trial of EPA-E in subjects with NASH. Type of series: in vivo, human. An excerpt: This example provides the protocol used for an ongoing phase II clinical trial, double blind, placebo-controlled study to investigate the safety, efficacy, and pharmacokinetic profile of two doses of EPA-E in subjects with NASH. Up to 70 subjects were enrolled into each treatment arm, for a total of 210 subjects to be enrolled. Block randomization using an interactive voice response system (IVRS) was used to assign patients in a 1:1:1 ratio to two active doses and placebo. Patients were stratified at randomization by presence or absence of diabetes. Patients with diabetes comprised no more than 25% of the total number of patients enrolled. […] Subjects were required to have a liver biopsy with proven NASH in the 6 month period prior to screening. The Pharmacokinetic profile for EPA-E was evaluated in a subgroup of subjects in specified sites. Subjects were approached prior to providing informed consent to determine if they will participate in the PK group subset. Approximately 36 subjects participated in the PK subset evaluation (12 from each treatment arm, to include 6 males and 6 females). Overall study duration plan was 2 years. In order to support the trial, EPA-E capsules and matching placebo capsules were prepared. EPA-E capsule is an oval soft gelatin capsule containing 300 mg of EPA-E as an active ingredient. […] These capsules are unidentifiable as EPA-E capsules or placebo capsules. Subjects were administered orally 3 capsules 3 times daily, immediately after meals. Subjects were potentially included into the study if they met all the following criteria: • 1. Diagnosis of definite NASH by the central reading pathologists: • Liver biopsy slides will be submitted for evaluation by the central pathologists according to one of the following criteria: • a. Previous liver biopsies must have been obtained within 6 months prior to informed consent and should be judged by the local pathologist as showing NAS ≥4 with a minimum score of 1 each for steatosis and lobular inflammation plus […] ballooning OR at least 1a sinusoidal fibrosis AND a finding of possible or definite steatohepatitis • b. For liver biopsies performed after informed consent is obtained, all slides will be submitted for reading by the central pathologists in conformity with the independent pathology review charter (IPRC) • 2. Patients of either gender greater than 18 years of age • 3. Patients with diabetes that have been on stable doses of anti-diabetic agents since at least 6 months prior to liver biopsy may be enrolled • 4. Females must be of non-child bearing potential (surgically sterilized or at least two years post-menopausal) or if of child-bearing potential, must have a negative pregnancy test at screening and agree to use an effective form of contraception during the study and for at least 30 days following the last dose of study medication • 5. Normal ECG or clinically non-significant findings at the Screening and Baseline visits • 6. No significant concomitant medical illness, without any clinically significant physical exam findings and without any clinically significant laboratory findings, as determined by the principal investigator • 7. […] Inability or unwillingness to have a liver biopsy • 2. Diagnosis of cirrhosis by central pathology reviewers • 3. Previous bariatric surgery or biliary diversion (i.e. gastric bypass), esophageal banding and gastric banding • 4. Serum ALT>300 U/L • 5. Subject has used drugs associated with steatohepatitis within 6 months prior to screening (corticosteroids, high dose estrogens, methotrexate, amiodarone, anti-HIV drugs, tamoxifen, diltiazem) • 6. Use of the following anti-NASH agents for more than a 2 week period in the 3 months prior to liver biopsy or the 3 months prior to screening: • a. Vitamin E>60 IU per day • b. Omega-3-acid ethyl esters or omega-3-PUFA-containing supplements >200 mg per day • c. Thiazoledinediones (e.g. pioglitazone) • 7. […]

Series [5] in a line: Excretion of radioactivity after single oral administration (rat). The class given is in vivo, rats. Here is the method:
EPADEL is a product containing ethyl all-cis-5,8,11,14,17-eicosapentaenoate (EPA-E), one of the n−3 essential fatty acids. The preclinical absorption, distribution, metabolism and excretion (ADME) characteristics of EPA-E have been determined primarily in rats.
(§2) Consequently, when EPA-E is administered orally to humans, it would appear that it is well absorbed, even though the unchanged ethyl ester form is not detected, and the free form (EPA) is only detected at a very low level, in the blood. Due to this absorption mechanism of essential fatty acids, the administered EPA-E exists as a blood-constituent fatty acid in the total lipids. In fact, according to the approval package document of Lovaza®, the free form of EPA is undetectable in the circulation (<1 μM) following an oral dose of 4 g of Omacor® (a mixture of the ethyl esters of EPA and DHA) Following oral administration of EPA-E, EPA, DPA and DHA were isolated and identified as metabolites in tissues and plasma. EPA, DPA and DHA were incorporated into TG and PL. Radioactivity was primarily excreted in expired air (44%) after single oral administration at 30 mg/kg EPA-E with minimal excretion in bile and urine (˜3%) and approximately 20% excreted in feces.
Renal excretion was the elimination route for several minor highly polar metabolites (<0.4%), but EPA-E, EPA, DPA or DHA were not detected in the urine. In feces, EPA-E and EPA, evidently derived from the unabsorbed drug, were detected; however, no DPA or DHA was detected in the feces.

Series [6] relates to arteries. Description: Preservation of elasticity of arteries. Type of series: in vivo. Conditions: rabbits.
The subject of series [7] is diet-induced hepatic steatosis model. Kind of series: Mouse diet-induced hepatic steatosis model. Type of series: in vivo. To be noted: repeat oral administration at ≥0.1 mg/g.
On the set-up of series [8]: species or system dogs. To be noted: dog, in vivo, po, 30 mg/kg, 1 week. Here is the method: as §2
For series [9], the system named is central nervous, autonomic nervous, respiratory and cardiovascular systems. Description: Safety pharmacology studies. The class given is in vivo. To be noted: oral doses up to 3000 mg/kg.
Series [10] in a line: Lipid lowering in animal studies. Type of series: in vivo. To be noted: rats, hamsters and rabbits.
Series [11] has as its system galactosamine-induced steatohepatitis mouse model. Description: Galactosamine-induced steatohepatitis mouse model. To be noted: oral administration at 1000 mg/kg. Type of series: in vivo.
Series [12] deals with pylorus-ligated rats. Kind of series: Gastric fluid levels in pylorus-ligated rats. Type of series: in vivo. Conditions: 3000 mg/kg oral dose.
The nature of series [13]: Hydrolysis in rat small intestine homogenates, lymph, plasma and liver homogenates. Type of series: in vitro ADME.
Series [14] has as its system ligated intestine. Kind of series: Administration of 14C-EPA-E into the ligated intestine of rats. Type of series: in vivo. To be noted: at 24 hours. How it is done: as §1
The mark [15] stands for this setting: single oral administration at 30 mg/kg.

As for `CC/C=C\C/C=C\C/C=C\C/C=C\C/C=C\CCCC(=O)O` [EPA, Eicosapentaenoic acid], the CYP450 inhibition result in [1] was “unlikely to inhibit CYP450”.
As for `CC/C=C\C/C=C\C/C=C\C/C=C\C/C=C\CCCC(=O)OCC` [EPA-E, ethyl all-cis-5,8,11,14,17-eicosapentaenoate], the absorption entry in series [2] (single oral dose 30-1000 mg/kg, rats) is given as “well-absorbed”. Besides, the fibrosis result in [3] is listed as “inhibited fibrosis”. The “inflammation and oxidative stress” value in series [3] is “suppressing inflammation and oxidative stress”. Also, the response rate entry in [4] (fasting glucose =<125 mg/dL and HbA1c =<6.4, Study arm 1, FIG. 4) is “higher response to rate”. For the same compound, the “efficacy (responders)” value in series [4] (fasting glucose =<125 mg/dL and HbA1c =<6.4, Study arm 2) is reported as “equivalent to that of Study arm 1”; in [4] (patients with HbA1c levels =<6.4, Study arm 1, FIG. 2, preliminary), “higher efficacy”; in [4] (patients with HbA1c levels =<6.4, Study arm 2, preliminary), “equivalent to that of Study arm 1”; in series [4] (patients with fasting glucose =<125 mg/dL, Study arm 1, FIG. 3, preliminary) it was “higher efficacy”; in series [4] (patients with fasting glucose =<125 mg/dL, Study arm 2, preliminary) it was “equivalent to that of Study arm 1”; in series [4] (patients without biliary tract disease markers (GGT ≤33 IU/L), Study arm 1 (600 mg TID) and Study arm 2 (900 mg TID), FIG. 7, preliminary), “higher efficacy”. Further, in [4] (patients with GGT levels =<33 IU/L, Study arm 1 and 2, FIG. 9, preliminary), the “NASH response (change of NAS score)” value is “higher efficacy”. Moreover, the “efficacy (preliminary endpoint achievement rate v. GGT)” value in series [4] (patients with GGT levels =<60 IU/L, Study arm 1 and 2, FIG. 8, preliminary) is “higher efficacy”. For the same compound, in series [4] (patients with GGT ≤33 IU/L, Study arm 2, FIG. 10, preliminary), the “improvement of serum EPA/AA ratio on Day 365” value was “higher efficacy”. For the same compound, the “serum EPA/AA ratio over time” value in series [4] (patients with GGT ≤33 IU/L, Study arm 2, FIG. 12) is listed as “significant increase”. The “efficacy (responders: NAS Score ≤3 or improvement of ≥2 across at least 2 of NAS components)” value was “higher efficacy” in series [4] (patients without diabetes or with mild diabetes compared to diabetic patients, Study arm 1 (600 mg EPA-E, TID), FIG. 1, preliminary) and “equivalent to that of Study arm 1” in [4] (patients without diabetes or with mild diabetes, Study arm 2 (900 mg EPA-E, TID), preliminary). For the same compound, the “radioactivity excreted in expired air” value in [5] (rat, in vivo, po, 30 mg/kg) is reported as 44%. Further, in [5] (setting [15]), the “radioactivity excreted in bile and urine” value is given as around 3%. Besides, the “radioactivity excreted in feces” value in [5] (setting [15]) is listed as “approximately 20%”. Besides, in series [5] (urine), the “EPA-E in the urine” value is “not detected”. Moreover, the elasticity of arteries result in series [6] is listed as “preserve the elasticity of arteries”. Besides, in series [7], the fat accumulation result is reported as “suppressed fat accumulation”. Besides, the “hepatic SREBP-1c levels” value in series [7] was “suppressing hepatic SREBP-1c levels”. Moreover, in series [7], the “monounsaturated fatty acid (MUFA) synthesis by SCD1” value is on record as “suppressing”. Moreover, the “radioactivity excreted in the urine” value in [8] is 1.0%. The “radioactivity recovered in the feces” value in series [8] is 19.2%. Further, in series [9], the “effect on the central nervous, autonomic nervous, respiratory and cardiovascular systems” value is given as “no effect”. In series [10], the lipids entry was “lower lipids”. The progression of steatohepatitis result in [11] was “retarded progression of steatohepatitis”. Besides, the “triglyceride (TG) accumulation” value in series [11] is “suppressing triglyceride (TG) accumulation”. In addition, the gastric fluid levels entry in series [12] was “reduction in gastric fluid levels”.
As to `CC/C=C\C/C=C\C/C=C\C/C=C\C/C=C\CCCC(=O)OCC` [^14C-EPA-E], the “unchanged EPA-E in the plasma or tissues” value in [2] (rat, oral administration, plasma, liver, fat, heart and brain) was “no unchanged EPA-E was found”. For the same compound, the “distribution of radioactivity in body tissues” value in [2] (rats, oral 14C-EPA-E) is on record as “widely distributed in the body tissues”. In [13], the hydrolysis entry is “hydrolyzed rapidly”. Besides, the “residual radioactivity in the intestine” value in [14] is on record as 4.6 % of the administered dose.
